Experimental data published in patent US20220249504A1, “LONGEVITY SIGNATURES AND THEIR APPLICATIONS” (The Brigham and Women's Hospital, Inc., priority 2019, published 2022).
Entries after “also recorded” stand apart in the source; their conditions may differ.

Key:
[1] = test system: sex-associated genes; assay: Feminizing effect of lifespan-extending interventions on hepatic gene expression (RNAseq, UM-HET3 mice); conditions: females
Description: Liver samples corresponding to lifespan-extending interventions for RNA-seq and metabolome analysis were taken at 6 and 12 months of age from male and female mice treated by drugs or exposed to caloric restriction (CR) diet from 4 months of age along with control mice, which were untreated littermate mice matched by age and sex.
In all cases, interventions continued until the animals were sacrificed. […] RNA was extracted from liver tissues with PureLink RNA Mini Kit as described in the protocol and passed to sequencing.
For samples corresponding to lifespan-extending interventions, paired-end sequencing with 100 bp read length was performed on illumine HiSeq2000 platform. […] Quality filtering and adapter removal were performed using Trimmomatic version 0.32.
When performing analysis of the feminizing effect, gene expression differences were identified between control males and females from UM-HET3 strains for each age group. […] The statistical significance of correlation between sex-associated differences and response to certain intervention (“feminizing effect”) was calculated using Spearman correlation test and adjusted for multiple comparisons with Benjamini-Hochberg procedure. When calculating correlation between response to certain intervention in specific age group (6 or 12 months) and female-associated differences, the latter were calculated using gene expression data for control males and females from the other age group (12 or 6 months, respectively). […]
Differences in the feminizing effect of interventions in certain age groups between males and females was tested by Spearman correlation test, applied to the difference in log2FC of gender-associated genes in response to the specified conditions between males and females, and female-associated differences based on the other age group, with the following Benjamini-Hochberg adjustment. Manhattan distance between male and female gene expression profiles was calculated for individual samples in a pairwise manner using intersection of sex-specific gene sets across age groups. […]

[2] = test system: mouse liver gene expression; assay: Meta-analysis: Spearman correlation between hepatic gene expression profiles of interventions; assay type: in vivo; conditions: for Correlation with the main cluster of interventions (defined by CR and GH deficiency): median Spearman correlation matrix
Description: To identify signatures associated with lifespan extension and the effect of certain interventions, we expanded our data with publicly available datasets from Gene Expression Omnibus (GEO) (Edgar, 2002) and ArrayExpress (Kolesnikov et al., 2015) databases. For the analysis of signatures associated with certain interventions (CR, rapamycin, GH deficiency), we integrated available gene expression data obtained from liver of mice from healthy genetic strains on standard diets subjected to CR, rapamycin and mutations associated with GH deficiency (Ames dwarf mice, GHRKO, Little mice, Snell dwarf mice). […] Finally, for the analysis of signatures associated with the lifespan extension effect, we integrated datasets on interventions with available and reliable survival data corresponding to the same experimental design (sex, strain, dose, age when the intervention started). In total, our hepatic meta-analysis covered 17 different interventions presented in 77 control-intervention datasets from 22 different sources (including ours) (FIG. 3D). The same approach was used to obtain microarray data corresponding to white adipose tissue (WAT) (9 control-intervention datasets from 5 sources) and skeletal muscle (13 control-intervention datasets from 9 sources).
To aggregate data across different platforms and studies, we developed the following method. First, data within each study was preprocessed independently and log-transformed to conform to normal distribution if needed. Then, filtering of low-covered genes was performed with soft threshold. Then, all identifiers were mapped to Entrez ID gene format, and genes not detected in our RNAseq data were filtered out. […] Afterwards, samples within every study were normalized by quantile normalization and scaling, followed by multiplication by the certain value to make it on the same scale as RNAseq data with more natural interpretation. Finally, mean and standard error of logFC of every gene for every response to intervention was calculated together with p-value (along with Benjamini-Hochberg adjusted p-value) estimated by edgeR (Robinson et al., 2009) and limma (Ritchie et al., 2015) for RNAseq and microarrays datasets, respectively. […] Importantly, one study may include several datasets if several interventions or settings have been analyzed there, and sometimes, different interventions or doses share the same control samples. This may be a source of batch effect, which we removed during subsequent steps of the analysis.
To calculate correlations between interventions in unbiased way, we applied the following approach. For every pair of interventions, including comparison of intervention with itself, we examined all pairs of datasets from different sources. For each such pair we selected 250 genes consisting of 125 genes with the most significant expression change (with the lowest p-values) from each dataset and calculated Spearman correlation coefficient within the pair. We reiterated this algorithm and, as a result, for every pair of interventions obtained distribution of Spearman correlation coefficients, calculated between datasets from different sources. For CR and rapamycin, we visualized these distributions using violinplot. One-sample Mann-Whitney test and Benjamini-Hochberg adjustment were used to check if means of correlation coefficients are different from 0 with statistical significance. We declared correlation coefficient to be significant if adjusted p-value was smaller than 0.1.
For correlation matrix we employed median values of Spearman correlation coefficients. By filtering out comparisons of datasets from the same source, we removed possible batch effect and ended up with independent and unbiased comparison of interventions. However, as some interventions were presented only within the same source, we couldn't estimate unbiased correlation for such cases. This missing data was visualized by grey boxes. […]

[3] = test system: mice; conditions: cited from earlier work; for Effect on lifespan in the ITP mouse cohort: at the concentrations used (Miller et al., 2011; Strong et al., 2013, 2016)
[4] = test system: C57BL/6 mice; assay: Glucose tolerance in old C57BL/6 mice on compound diet; assay type: in vivo, mouse; conditions: old C57BL/6 mice at the dose given in diet (AZD-8055: 23-month-old, treated 2.5 months)
Description: 23-month-old mice were treated for 2.5 months prior to analyses.

[5] = test system: C57BL/6 mice; assay: Frailty index of old C57BL/6 mice on compound diet; assay type: in vivo, mouse
Description: (§1) Briefly, 24-28 mice per intervention were used, with an approximately equal number of males and females. Mice were first assessed with regard to frailty index and gait speed, and then randomized to make sure the experimental and control groups had the same average frailty index and gait speed. Mice were then given a diet containing a compound of interest. […] Mice were monitored daily until they died. A separate cohort of old mice was assessed for frailty index and gait speed.
as §1, with “females. They” for “females. Mice”

[6] = test system: C57BL/6 mice; assay: Gait speed of old C57BL/6 mice on compound diet; assay type: in vivo, mouse; conditions: 31-month-old C57BL/6 male mice
Description: as §1
as §1, with “females. They” for “females. Mice”

[7] = test system: C57BI/6 mice; assay: Lifespan of old (2-year-old) C57BL/6 mice given a diet containing the compound; assay type: in vivo, mouse; conditions: C57BL/6 male mice, given late in life, ad libitum in diet (AZD-8055 20 mg/kg of food, LY294002 600 mg/kg, KU-0063794 10 mg/kg of diet)
Description: as §1
Interventions were predicted in a screen based on the gene expression longevity signatures that we developed. The predicted interventions were then verified for gene expression responses in human and mouse primary cell culture (hepatocytes) and in live mice (after mice were fed for 1 month with the diets containing these interventions). The interventions that passed these tests were further assessed for the effect on lifespan of 2-year-old C57BI/6 mice. Older mice (2-year-old) were chosen for this experiment in order to mimic the effect of giving interventions to human subjects in their second half of life.
as §1, with “females. They” for “females. Mice”

[8] = test system: longevity signatures; assay: GSEA-based association of publicly available hepatic gene expression datasets with longevity signatures; assay type: in vivo, mouse; conditions: for Association of hepatic gene expression changes with longevity signatures: public datasets (IL-6 injection GSE21060; SRT2104 in males GSE49000)
Description: For interventions from publicly available sources (FIG. 7E (upper)), we downloaded them from GEO under the following accession numbers: GSE21060 (Ramadoss et al., 2010), GSE77082 (Alonso et al., 2017), GSE15891 (Baze et al., 2010), GSE11287 (Osburn et al., 2008), GSE49000 (Mercken et al., 2014), GSE10421 (Kautz et al., 2008) and GSE104234 (Rhoads et al., 2018). Data corresponding to Sirt6 overexpression (Kanfi et al., 2012) were downloaded via the link provided in the original paper. When running association test for the rhesus monkey data, we converted monkey genes to mouse orthologs using Ensembl BioMart platform. We preprocessed each dataset, performed quantile normalization and Entrez ID transformation and applied limma model for calculation of p-values, which were converted to log10(p-value) corrected by the sign of regulation as explained earlier.
To calculate statistical significance of obtained GSEA score, we performed permutation test where we randomly assigned genes to the lists of gene set maintaining their size. To get p-value of association between certain intervention and longevity signature, we calculated the frequency of real final GSEA score being bigger by absolute value than random final GSEA scores obtained as results of 3,000 permutations. To adjust for multiple comparisons, we performed Benjamini-Hochberg procedure. Resulted adjusted p-values were converted into significance scores as:
significance score=−log10(adj.pv)×sgn(GSEA score),
where adj. pv and GSEA score are BH adjusted p-value and final GSEA score, respectively. Heatmaps were colored based on values of significance scores. […]

[9] = datasets from different sources, 250 genes

Compound: C[C@H]1O[C@H](O[C@H]2[C@H](O)[C@@H](O)[C@@H](O[C@H]3[C@H](O)[C@@H](O)C(O)O[C@@H]3CO)O[C@@H]2CO)[C@H](O)[C@@H](O)[C@@H]1N[C@H]1C=C(CO)[C@@H](O)[C@H](O)[C@H]1O (stereo partly drawn) [acarbose]
- Feminizing effect (Spearman correlation with sex-associated gene expression differences) ([1]; 12-month-old): 0.19

Compound: CN(C)C(=N)N=C(N)N [metformin]
- Correlation with CR at the level of gene expression (median Spearman correlation coefficient) [2, 9]: statistically significant positive correlations
- Correlation with the main cluster of interventions (defined by CR and GH deficiency) [2]: week positive correlation
- Effect on lifespan in the ITP mouse cohort [3]: did not increase lifespan

Compound: COc1ccc(-c2ccc3c(N4CCOC[C@@H]4C)nc(N4CCOC[C@@H]4C)nc3n2)cc1CO [AZD-8055, 5-[2,4-bis[(3S)-3-methyl-4-morpholinyl]pyrido[2,3-d]pyrimidin-7-yl]-2-methoxy-benzenemethanol]
- Effect on glucose tolerance [4]: does not lead to glucose intolerance; also recorded: did not compromise
- Effect on frailty index ([5]; old C57BL/6 mice, males and females): no effect

Compound: O=c1cc(N2CCOCC2)oc2c(-c3ccccc3)cccc12 [LY294002, 2-Morpholin-4-yl-8-phenylchromen-4-one]
- Effect on glucose tolerance [4]: No effect; also recorded: did not have a significant effect
- Effect on frailty index ([5]; 31-month-old C57BL/6 male mice): improves
- Effect on gait speed [6]: improves
- Effect on lifespan [7]: extends lifespan

Compound: Oc1ccc(C=Cc2cc(O)cc(O)c2)cc1 [resveratrol]
- Correlation with CR at the level of gene expression (median Spearman correlation coefficient) [2, 9]: statistically significant positive correlations
- Correlation with the main cluster of interventions (defined by CR and GH deficiency) [2]: week positive correlation
- Effect on lifespan in the ITP mouse cohort [3]: did not increase lifespan

Compound: interleukin-6: pro-inflammatory cytokine secreted by T cells and macrophages
- Association of hepatic gene expression changes with longevity signatures [8]: significant negative association with all longevity signatures

Compound: Cc1nc(-c2cccnc2)sc1C(=O)Nc1ccccc1-c1cn2c(CN3CCOCC3)csc2n1 [SRT2104]
- Increase in median and maximum lifespan ([3]; male mice (Mercken et al., 2014b)): ~10%
- Association with longevity signatures associated with the quantitative effect of lifespan extension ([8]; males, public dataset): no consistent positive association
- Association of hepatic gene expression changes with longevity signatures [8]: significant positive associations of these models in males with CR and signatures shared by lifespan-extending interventions

Compound: CO[C@H]1C[C@@H]2CC[C@@H](C)[C@@](O)(O2)C(=O)C(=O)N2CCCC[C@H]2C(=O)O[C@H]([C@H](C)C[C@@H]2CC[C@@H](O)[C@H](OC)C2)CC(=O)[C@H](C)/C=C(\C)[C@@H](O)[C@@H](OC)C(=O)[C@H](C)C[C@H](C)/C=C/C=C/C=C/1C [rapamycin]
- Correlation of the intervention with itself across datasets (median Spearman correlation coefficient) [2, 9]: 0.088
- Correlation with CR at the level of gene expression (median Spearman correlation coefficient) [2, 9]: −0.049
- Feminizing effect (Spearman correlation with sex-associated gene expression differences) ([1]; 6-month-old): −0.14
- Feminizing effect (Spearman correlation with sex-associated gene expression differences) ([1]; 12-month-old): −0.49
